Assay results taken from US9375013B2, “Herbicidal composition” (ISHIHARA SANGYO KAISHA, LTD., priority 2013, dated 2016).

How the values were obtained:
Type in all cases: in vivo
[1] = test system: shattercane (Sorghum bicolor (L.) Moench.); assay: Test Example 6: pot soil treatment, growth inhibition of shattercane; details: dose 30 g/ha, 22nd day after treatment, read-out: Growth inhibition rate (%) of shattercane, Measured value
Description: On the 14th day after treatment, the state of growth of the summergrass was visually observed to determine the growth inhibition rate in accordance with the following evaluation standard. The growth inhibition rate (%) (measured value) and the growth inhibition rate (%) (calculated value) calculated by the Colby's formula are shown in Table 1. Growth inhibition rate (%)=0 (equivalent to the non-treated area) to 100 (complete kill)
Upland field soil was put into a 1/160,000 ha pot, and seeds of shattercane (Sorghum bicolor (L.) Moench.) were sown. On the next day, predetermined amounts of flazasulfuron and hexazinone were diluted with water (in an amount corresponding to 300 L/ha), and applied for soil treatment by a small sprayer.
On the 22nd day after treatment, the state of growth of the shattercane was visually observed to determine the growth inhibition rate. The growth inhibition rate (%) (measured value) and the growth inhibition rate (%) calculated in the same manner as in Test Example 1 are shown in Table 6.

[2] = test system: field bindweed (Convolvulus arvensis L.); assay: Test Example 5: pot soil treatment, growth inhibition of field bindweed; details: dose 30 g/ha, 22nd day after treatment, read-out: Growth inhibition rate (%) of field bindweed, Measured value
Description: (§1) On the 14th day after treatment, the state of growth of the summergrass was visually observed to determine the growth inhibition rate in accordance with the following evaluation standard. The growth inhibition rate (%) (measured value) and the growth inhibition rate (%) (calculated value) calculated by the Colby's formula are shown in Table 1. Growth inhibition rate (%)=0 (equivalent to the non-treated area) to 100 (complete kill) Upland field soil was put into a 1/160,000 ha pot, and seeds of field bindweed (Convolvulus arvensis L.) were sown. On the next day, predetermined amounts of flazasulfuron and hexazinone were diluted with water (in an amount corresponding to 300 L/ha), and applied for soil treatment by a small sprayer. On the 22nd day after treatment, the state of growth of the field bindweed was visually observed to determine the growth inhibition rate. The growth inhibition rate (%) (measured value) and the growth inhibition rate (%) calculated in the same manner as in Test Example 1 are shown in Table 5.

[3] = test system: ivy-leaved morningglory (Ipomoea hederacea (L.) Jacq.); assay: Test Example 2: pot soil treatment, growth inhibition of ivy-leaved morningglory; details: 22nd day after treatment, read-out: Growth inhibition rate (%) of ivy-leaved morningglory, Measured value
Description: as §1, with “ivy-leaved morningglory (Ipomoea hederacea (L.) Jacq.)” for “field bindweed (Convolvulus arvensis L.)”, “ivy-leaved morningglory” for “field bindweed”, “2.” for “5.”

[4] = test system: velvetleaf (Abutilon theophrasti MEDIC.); assay: Test Example 13: pot soil treatment, growth inhibition of velvetleaf; details: dose 30 g/ha, 21st day after treatment, read-out: Growth inhibition rate (%) of velvetleaf, Measured value
[5] = test system: wild oat (Avena fatua L.); assay: Test Example 3: pot soil treatment, growth inhibition of wild oat; details: 22nd day after treatment, read-out: Growth inhibition rate (%) of wild oat, Measured value
Description: as §1, with “wild oat (Avena fatua” for “field bindweed (Convolvulus arvensis”, “flazasulfuron, mesotrione” for “flazasulfuron”, “imazapic” for “hexazinone”, “wild oat” for “field bindweed”, “3.” for “5.”

[6] = test system: persian speedwell (Veronica persica Poir.); assay: Test Example 8: pot soil treatment, growth inhibition of persian speedwell; details: 21st day after treatment, read-out: Growth inhibition rate (%) of persian speedwell, Measured value
[7] = test system: barnyardgrass (Echinochloa crus-galli L); assay: Test Example 9: pot soil treatment, growth inhibition of barnyardgrass; details: dose 30 g/ha, 21st day after treatment, read-out: Growth inhibition rate (%) of barnyardgrass, Measured value
Description: as §1, with “barnyardgrass (Echinochloa crus-galli L)” for “field bindweed (Convolvulus arvensis L.)”, “21st” for “22nd”, “barnyardgrass” for “field bindweed”, “9.” for “5.”

COc1cc(OC)nc(NC(=O)NS(=O)(=O)c2ncccc2C(F)(F)F)n1 [Flazasulfuron, flazasulfuron]
inhibition at 30 g/ha [1]: 60% | inhibition at 30 g/ha [2]: 0% | inhibition at 10 g/ha ([3]; dose 10 g/ha): 0% | inhibition at 30 g/ha ([3]; dose 30 g/ha): 0% | inhibition at 50 g/ha ([3]; dose 50 g/ha): 40% | inhibition at 30 g/ha [4]: 75% | inhibition at 30 g/ha ([5]; dose 30 g/ha): 40% | inhibition at 50 g/ha ([5]; dose 50 g/ha): 0% | inhibition at 50 g/ha [6]: 20% | inhibition at 30 g/ha [7]: 90%
